From patent US7915270B2, “Oxazole ketones as modulators of fatty acid amide hydrolase” (The Scripps Research Institute, priority 2006, dated 2011)

Experiments:
neuropathic pain = conditions: rats; WO 02/087569; cited from earlier work
[1] = test system: acute thermal nociception; conditions: rats; WO 02/087569; cited from earlier work
[2] = Pharmacokinetic testing, intravenous bolus in rats; assay type: in vivo; conditions: rat, plasma, 2 mg/kg, male Sprague Dawley rats, 1 mg/mL in 2 mL/kg
Protocol: For each test compound, two male Sprague Dawley Rats (Charles River Laboratories; approx. 300 g body weight) were used. Animals were individually housed, provided food and water ad libitum, and were maintained on a 12 h light and dark cycle. Animals received from the vendor were surgically cannulated by the vendor with right jugular vein and left carotid artery catheters. Animals were acclimatized for at least 5 days after receipt from the vendor prior to investigations.
Animals received a bolus intravenous dose of the test compound at a dose of 1 mg/mL in a volume of 2 mL/kg via the right jugular vein catheter. The intravenous dosing solution was prepared in 55% pharmasolve, 20% cremophor, and […] physiological saline, or 100% saline adjusted to pH 8.0.
Following intravenous administration, blood was collected (sampled 0.35 mL per time point from the left carotid artery catheter) at 0.083, 0.25, 0.5, 1, 2, 4, and 6 h post-dose. Blood was collected into tubes containing EDTA and stored at 4° C. for not more than 2 h. The samples were centrifuged at 10,000 rpm in a micro-centrifuge for 5 min to obtain a plasma fraction. The plasma was stored at between −20 and −80° C. until processed for analysis. These samples were analyzed by LC-MS/MS to determine the plasma level of the compound.
Plasma level vs. time plots were created and WinNonlin (Pharsight Corp.) was used to analyze the data. A non-compartmental pharmacokinetic model was used to determine the pharmacokinetic parameters, including clearance, volume of distribution (Vd), and half-life (t1/2).

[3] = Solubility determination in water; assay type: physicochemical; conditions: thermodynamic from solid; in water at 5, 1 and 0.1 mg/mL; pH of resulting solutions 7-8.5
Protocol: Physical Chemical Properties
Solubility determinations were made by mixing the test compound in water at 5 mg/mL, 1 mg/mL, and 0.1 mg/mL concentrations. The pH of the resulting solutions was 7-8.5.

FAAH [4] = target: T1, FAAH (Homo sapiens, UniProt O00519); test: Assay Method 1B: FAAH assay, 3H-anandamide hydrolysis in cell homogenate (T84 or SK-N-MC cells transfected with human FAAH); assay type: biochemical; parameters: expressed in transfected cells; conditions: 3H-AEA 80 nM, rt 1 h, pH 9
T1 sequence (O00519 1-579): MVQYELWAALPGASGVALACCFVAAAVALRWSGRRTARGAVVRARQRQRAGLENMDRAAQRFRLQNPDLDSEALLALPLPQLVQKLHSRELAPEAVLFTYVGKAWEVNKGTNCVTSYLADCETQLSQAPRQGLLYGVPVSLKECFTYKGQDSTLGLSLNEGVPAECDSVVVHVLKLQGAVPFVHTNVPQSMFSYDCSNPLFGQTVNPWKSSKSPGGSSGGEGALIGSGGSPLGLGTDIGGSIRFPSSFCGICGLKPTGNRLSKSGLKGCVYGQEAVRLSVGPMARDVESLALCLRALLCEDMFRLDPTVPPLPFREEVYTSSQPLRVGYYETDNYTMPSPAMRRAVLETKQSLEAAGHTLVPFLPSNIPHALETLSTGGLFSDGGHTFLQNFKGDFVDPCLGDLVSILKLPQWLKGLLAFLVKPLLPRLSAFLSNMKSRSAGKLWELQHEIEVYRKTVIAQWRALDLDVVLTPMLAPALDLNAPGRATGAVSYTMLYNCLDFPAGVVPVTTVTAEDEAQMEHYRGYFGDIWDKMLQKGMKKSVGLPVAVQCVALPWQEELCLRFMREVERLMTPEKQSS
Protocol: Transfection of Cells with Human FAAH A 10-cm tissue culture dish with a confluent monolayer of SK—N-MC cells was split 2 days (d) prior to transfection. Using sterile technique, the media was removed and the cells were detached from the dish by the addition of trypsin. One fifth of the cells were then placed onto a new 10-cm dish. Cells were grown in a 37° C. incubator with 5% CO2 in Minimal Essential Media Eagle with 10% Fetal Bovine Serum. After 2 d, cells were approximately 80% confluent. These cells were removed from the dish with trypsin and pelleted in a clinical centrifuge. The pellet was re-suspended in 400 μL complete media and transferred to an electroporation cuvette with a 0.4 cm gap between the electrodes. Supercoiled human FAAH cDNA (1 μg) was added to the cells and mixed. The voltage for the electroporation was set at 0.25 kV, and the capacitance was set at 960 μF. After electroporation, the cells were diluted into complete media (10 mL) and plated onto four 10-cm dishes. Because of the variability in the efficiency of electroporation, four different concentrations of cells were plated. The ratios used were 1:20, 1:10, and 1:5, with the remainder of the cells being added to the fourth dish. The cells were allowed to recover for 24 h before adding the selection media (complete media with 600 μg/mL G418). After 10 d, dishes were analyzed for surviving colonies of cells. Dishes with well-isolated colonies were used. Cells from individual colonies were isolated and tested. […] The reaction mixture was incubated at rt for 1 h. During the incubation, 96-well Multiscreen filter plates (catalog number MAFCNOB50; Millipore, Bedford, Mass., USA) were loaded with 25 μL of activated charcoal (Multiscreen column loader, catalog number MACL09625, Millipore) and washed once with 100 μL of MeOH. Also during the incubation, 96-well DYNEX MicroLite plates (catalog number NL510410) were loaded with 100 μL of MicroScint40 (catalog number 6013641, Packard Bioscience, Meriden, Conn., USA). After the 1 h incubation, 60 μL of the reaction mixture were transferred to the charcoal plates, which were then assembled on top of the DYNEX plates using Centrifuge Alignment Frames (catalog number MACF09604, Millipore). The unbound labeled ethanolamine was centrifuged through to the bottom plate (5 min at 2000 rpm), which was preloaded with the scintillant, as described above. The plates were sealed and left at rt for 1 h before counting on a Hewlett Packard TopCount.

Rat FAAH = target: T2, Rat FAAH (Rattus norvegicus, UniProt P97612); test: Assay Method 2: FAAH assay, 3H-anandamide hydrolysis in cell homogenate (SK-N-MC cells transfected with rat FAAH); assay type: biochemical; conditions: 3H-AEA 80 nM, rt 1 h, pH 9
T2 construct: expressed in transfected cells
T2 sequence (P97612 1-579): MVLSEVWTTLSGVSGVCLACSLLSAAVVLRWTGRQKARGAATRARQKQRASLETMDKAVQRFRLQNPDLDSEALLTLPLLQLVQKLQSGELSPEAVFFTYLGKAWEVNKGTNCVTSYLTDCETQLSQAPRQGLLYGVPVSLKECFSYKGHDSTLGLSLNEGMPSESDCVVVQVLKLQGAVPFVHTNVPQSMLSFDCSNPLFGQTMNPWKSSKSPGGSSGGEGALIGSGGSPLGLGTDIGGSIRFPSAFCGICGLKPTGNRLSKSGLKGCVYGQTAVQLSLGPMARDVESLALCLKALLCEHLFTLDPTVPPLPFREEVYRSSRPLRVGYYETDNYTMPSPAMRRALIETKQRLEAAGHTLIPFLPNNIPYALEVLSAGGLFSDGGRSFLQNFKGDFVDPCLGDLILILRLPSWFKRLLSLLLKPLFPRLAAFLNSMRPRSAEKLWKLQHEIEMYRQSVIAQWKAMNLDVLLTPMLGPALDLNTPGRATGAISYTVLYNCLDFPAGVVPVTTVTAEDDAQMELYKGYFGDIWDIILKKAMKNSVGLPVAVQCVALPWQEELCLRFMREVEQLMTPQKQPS
Protocol: A. Transfection of Cells with Rat FAAH
A 10-cm tissue culture dish with a confluent monolayer of SK—N-MC cells was split 2 days (d) prior to transfection. Using sterile technique, the media was removed and the cells were detached from the dish by the addition of trypsin. One fifth of the cells were then placed onto a new 10-cm dish. Cells were grown in a 37° C. incubator with 5% CO2 in Minimal Essential Media Eagle with 10% Fetal Bovine Serum. After 2 d, cells were approximately 80% confluent. These cells were removed from the dish with trypsin and pelleted in a clinical centrifuge. The pellet was re-suspended in 400 μL complete media and transferred to an electroporation cuvette with a 0.4 cm gap between the electrodes. Supercoiled rat FAAH cDNA (1 μg) was added to the cells and mixed. The voltage for the electroporation was set at 0.25 kV, and the capacitance was set at 960 μF. After electroporation, the cells were diluted into complete media (10 mL) and plated onto four 10-cm dishes. Because of the variability in the efficiency of electroporation, four different concentrations of cells were plated. The ratios used were 1:20, 1:10, and 1:5, with the remainder of the cells being added to the fourth dish. The cells were allowed to recover for 24 h before adding the selection media (complete media with 600 μg/mL G418). After 10 d, dishes were analyzed for surviving colonies of cells. Dishes with well-isolated colonies were used. Cells from individual colonies were isolated and tested.
The assay mixture consisted of 50 μL of the cell homogenate, 10 μL of the test compound, and 40 μL of anandamide [1-^3H-ethanolamine] (^3H-AEA, Perkin-Elmer, 10.3 Ci/mmol), which was added last, for a final tracer concentration of 80 nM. The reaction mixture was incubated at rt for 1 h. During the incubation, 96-well Multiscreen filter plates (catalog number MAFCNOB50; Millipore, Bedford, Mass., USA) were loaded with 25 μL of activated charcoal (Multiscreen column loader, catalog number MACL09625, Millipore) and washed once with 100 μL of MeOH. […] After the 1 h incubation, 60 μL of the reaction mixture were transferred to the charcoal plates, which were then assembled on top of the DYNEX plates using Centrifuge Alignment Frames (catalog number MACF09604, Millipore). The unbound labeled ethanolamine was centrifuged through to the bottom plate (5 min at 2000 rpm), which was preloaded with the scintillant, as described above. The plates were sealed and left at rt for 1 h before counting on a Hewlett Packard TopCount.

FAAH [5] = target: T3, FAAH (Rattus norvegicus, UniProt P97612); test: Assay Method 1A: FAAH enzyme assay, 14C-oleamide hydrolysis, solubilized liver plasma membrane extract;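 further: ki obtained by Dixon analysis, taking the x-intercept of inhibitor concentration versus reciprocal rate plots at fixed substrate level and correcting for substrate concentration relative to Km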
T3 sequence (P97612 1-579): T2 sequence (P97612 1-579)
Protocol: Linear least squares fits were used for all reaction progress curves and R^2 values were consistently >0.97. […] Ki values were determined by the Dixon Method (x-intercepts of weighted linear fits of [I] versus 1/rate plots at constant substrate concentration, which were converted to Ki values using the formula Ki=−xint/[1+[S]/Km]).

thermal nociception [6] = conditions: rats; WO 04/033652; cited from earlier work
thermal nociception [7] = conditions: rats; WO 04/033652; cited from earlier work; remark: listed apart in the source
FAAH [8] = target: T1, FAAH; conditions: reported; cited from earlier work

Compound	IC50 (FAAH [4]) [nM]	IC50 (Rat FAAH) [nM]	Ki (FAAH [5]) [nM]	further results
Cc1nc(-c2ccccc2)c(-c2ccccc2)n1CCCCCCNC(=O)Oc1ccccc1F [BMS-1]				analgesic effect in the Chung spinal nerve ligation model (neuropathic pain): analgesic effect; analgesic effect in the Hargraves test [1]: analgesic effect
O=C(CCCCCCc1ccccc1)c1ncc(-c2ccccn2)o1 [Comp. Ex. 1, 7-Phenyl-1-(5-pyridin-2-yl-oxazol-2-yl)-heptan-1-one, reference compound]				Vd [2]: 27.3 L/kg; clearance [2]: 98.3 mL/min/kg; half-life [2]: 3.23 h; solubility [3]: < 100 µg/mL
O=C(CCCCCCc1ccccc1)c1ncc(-c2ccco2)o1 [Comp. Ex. 2, 1-(5-Furan-2-yl-oxazol-2-yl)-7-phenyl-heptan-1-one, reference compound]				Vd [2]: 22.9 L/kg; clearance [2]: 63.3 mL/min/kg; half-life [2]: 3.49 h; solubility [3]: < 100 µg/mL
COC(=O)c1ccc(-c2cnc(C(=O)CCCCCCc3ccccc3)o2)nc1 [Example 34, Methyl 6-(2-(7-phenylheptanoyl)oxazol-5-yl)nicotinate]	11	9	4	
COC(=O)c1cccnc1-c1cnc(C(=O)CCCCCCc2ccccc2)o1 [Example 36, Methyl 2-(2-(7-phenylheptanoyl)oxazol-5-yl)nicotinate]	180	150	> 50	
COC(=O)c1ccc(-c2cnc(C(=O)CCCCCCc3ccccc3)o2)o1 [Example 55, Methyl 5-(2-(7-phenylheptanoyl)oxazol-5-yl)furan-2-carboxylate]	11	20	6	
COC(=O)c1ccc(-c2cnc(C(=O)CCCCCCc3ccccc3)o2)s1 [Example 57, Methyl 5-(2-(7-phenylheptanoyl)oxazol-5-yl)thiophene-2-carboxylate]	6	75	7	
O=C(CCCCCCc1ccccc1)c1ncc(-c2ccccn2)o1 [OL-135]				analgesic activity in the hot plate test (thermal nociception [6]): analgesic activity; analgesic activity in the tail emersion test (thermal nociception [7]): analgesic activity; inhibition of FAAH (FAAH [8]): potent inhibitor

Second part, led by results:

IC50 (FAAH [4]) [nM]	IC50 (Rat FAAH) [nM]	Ki (FAAH [5]) [nM]	Compound	further results
0.1	1.5	19	O=C(CCCCCCc1ccccc1)c1ncc(-c2cc(=O)[nH]c(=O)[nH]2)o1 [Example 52, 6-(2-(7-Phenylheptanoyl)oxazol-5-yl)pyrimidine-2,4(1H,3H)-dione]	
0.8	2	15	O=C(O)c1ccc(-c2cnc(C(=O)CCCCCCc3ccccc3)o2)o1 [Example 56, 5-(2-(7-Phenylheptanoyl)oxazol-5-yl)furan-2-carboxylic acid]	solubility [3]: > 5000 µg/mL
1	9	11	O=C(CCCCCCc1ccccc1)c1ncc(-c2ccc(C(=O)O)s2)o1 [Example 58, 5-(2-(7-Phenylheptanoyl)oxazol-5-yl)thiophene-2-carboxylic acid]	
2	8	3	NS(=O)(=O)c1ccc(-c2cnc(C(=O)CCCCCCc3ccccc3)o2)s1 [Example 59, 5-(2-(7-Phenylheptanoyl)oxazol-5-yl)thiophene-2-sulfonamide]	
440	3000	6000	O=C(CCCCCCc1ccccc1)c1ncc(-c2ccccc2C(=O)O)o1 [Example 60, 2-(2-(7-Phenylheptanoyl)oxazol-5-yl)benzoic acid]	
